Results on three compounds are retold here after patent publication US20220008414A1, “PHARMACEUTICAL COMPOSITION COMPRISING HISTONE DEACETYLASE 6 INHIBITORS” (Chong Kun Dang Pharmaceutical Corp., priority 2018, published 2022).

Some results are limits rather than exact numbers.

Assay [1] concerns hippocampal neurons from a Sprague-Dawley (SD) rat fetus. The assay is described as follows: Effect on axonal transport velocity of mitochondria (in vitro). As to conditions: amyloid-beta treated neurons, vehicle set at 100%, amyloid-beta group at 0%. Type of assay: cell-based. As to the method: To that end, on the 17th to 18th days (E17-18) of insemination, the hippocampal neurons from a Sprague-Dawley (SD) rat fetus were cultured for seven days in a culture container for imaging, which had been coated with extracellular matrix, and were treated with amyloid-beta protein fragments at a concentration of […]. In 24 hours later, such neurons were treated with the compound on the 8th day of in vitro culture. In three hours later, they were treated with MitoTracker Red CMXRos (Life Tech-nologies, NY, USA) for last five minutes to stain mitochondria. An image on the axonal transport of stained neuron mitochondria was taken with a confocal microscope (Leica SP8; Leica microsystems, UK) at an interval of one second for one minute to measure a transport velocity of each mitochondria per second with an IMARIS analysis program (BITPLANE, Zurich, Switzerland), and to set a section, in which the group treated with amyloid-beta had shown a significant decrease in the transport velocity of mitochondria compared to a vehicle. After that, the results of normalization with the vehicle set at 100% and with the group treated with amyloid-beta set at 0% were described in the following table 1.

The target of assay [2] is T1, HDAC-8 (Homo sapiens, UniProt Q9BY41).
T1 construct: Reaction biology Corp. (contract laboratory)
T1 sequence (Q9BY41 1-377): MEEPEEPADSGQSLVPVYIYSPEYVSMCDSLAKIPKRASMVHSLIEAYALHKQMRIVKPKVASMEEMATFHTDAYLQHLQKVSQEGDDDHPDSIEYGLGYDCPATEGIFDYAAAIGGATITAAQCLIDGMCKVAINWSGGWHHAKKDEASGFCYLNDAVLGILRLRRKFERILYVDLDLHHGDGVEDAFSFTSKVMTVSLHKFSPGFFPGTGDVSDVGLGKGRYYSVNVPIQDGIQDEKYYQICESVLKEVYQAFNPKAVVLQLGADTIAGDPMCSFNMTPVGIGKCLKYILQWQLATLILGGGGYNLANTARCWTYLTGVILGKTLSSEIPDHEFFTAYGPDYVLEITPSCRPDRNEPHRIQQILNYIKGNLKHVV
The experiment in a line: HDAC isotype enzyme assay (Reaction biology Corp.). It counts as biochemical. As to conditions: substrate RHK-K(Ac)-AMC.

The subject of assay [3] is other HDAC isotypes. The experiment in a line: HDAC isotype enzyme assay (Reaction biology Corp.), remaining isotypes. Type of assay: biochemical. As to conditions: isotypes other than HDAC6 and HDAC8 (ND in table 3).
Assay [4] concerns CMT1A mice (C22). The assay is described as follows: Rotarod test. It counts as in vivo. The conditions noted are these: 10, 25 and 100 mg/kg twice a day orally for two weeks, 2.5-week-old C22 mice, vs control group (DW C22). The protocol:
(§1) Particularly, the compound 84 was repeatedly administered into the 2.5-week-old CMT1A mice (C22) at 10, 25 and 100 mg/kg twice a day for two weeks. Behavioral evaluation and electrophysiological analysis were performed on the last day, immediately after which the animals were sacrificed to carry out histopathological analysis and evaluation.
(§2) Rotarod, balance beam and grip strength tests were conducted once a day for two days. Thereafter, the animals were distributed by the Z-array method based on the results of rotarod, grip strength, and body weight. C22 mice were divided into four groups consisting of DW treated group and three compound 84 treated groups (10, 25, 100 mg/kg) with 10 mice per group. The test articles were repeatedly administered twice a day orally, and the behavioral test was performed 30 min after administration of the test articles.
The Rotarod test (ROTA ROD, LE8205, Panlab) was performed to evaluate a motor coordination function/motor function. For three days before the test, all the test animals were placed on a road at 8 rpm and subjected to adaptive training five times a day. The animals, whose time of falling from the rod reached 150-180 seconds, were used in the test (including about 80% of all the animals). In both group separation and the present experiment, time at which animals fell from the rod was measured at a fixed speed of 8 rpm for three minutes. […]

For assay [5], the system named is CMT1A mice (C22). The assay is described as follows: Grip strength test. As to conditions: 10, 25 and 100 mg/kg twice a day orally for two weeks, 2.5-week-old C22 mice, vs control group (DW C22). Type of assay: in vivo. The protocol:
as §1, §2
In an actual clinical test, a degree of muscle atrophy is evaluated with an ankle dorsiflexion examination and a grip test. GST (GRIP […] TEST, BIO-GS3, BIOSEB) is mainly used in an animal experiment. For the GST, strength of four feet was evaluated with grid. All the experiments were performed by one person. […] Out of the values consecutively measured five times, the maximum value was calibrated with a weight, and then used as evaluation results. […]

In assay [6] the test system is CMT1A mice (C22). The assay is described as follows: Nerve conduction study (NCS). Type of assay: in vivo. As to conditions: 10, 25 and 100 mg/kg twice a day for two weeks, 2.5-week-old C22 mice, vs control group (DW C22). The protocol: as §1
The evaluation of the nerve conduction study (NSC) was as follows. A supramaximal stimulus was applied to proximal peripheral nerves, after which the compound muscle action potentials (CMAP) produced from distal muscles controlled by the nerves were recorded to measure a latent period, amplitude, nerve conduction velocity (NCV), duration, shape, area and the like, which were then compared with normal values and thus evaluated. For the nerve conduction study (NSC), an electrical stimulus was given to the sciatic nerves of the mice anesthetized with isoflurane, after which the electrical stimulus given to sural nerves was measured with VikingQuest (Natus Medical Inc.).

Assay [7] has as its system CMT1A mice (C22). The experiment in a line: Histopathological analysis of sciatic nerves. Type of assay: in vivo. The protocol: as §1
A histopathological analysis was performed as follows. In 0.5 hours after the last administration of the compound 84, the mice were euthanized through cervical dis-location, after which their sciatic nerves were collected therefrom. For a histopathological examination, the collected sciatic nerves were fixed into 2.5% glu-taraldehyde solution. The fixed tissues were prepared into a plastic-embedded block through a tissue treatment process, then micro-sectioned in the semithin thickness of 500 nm to prepare sciatic nerve tissue fragments, and then stained with toluidine blue.
The stained nerve tissues were photographed at 400× magnification with an optical microscope. In a photographed entire area, the inner axon diameters of total myelinated fibers and total unmyelinated fibers were measured with an image J program. The results thereof were analyzed by using the numbers of total myelinated fibers and total unmyelinated fibers as well as a size distribution chart on the diameters of respective nerve fibers.

Assay [8] deals with T2, HDAC-6 (Homo sapiens, UniProt Q9UBN7).
T2 sequence (Q9UBN7 1-1215): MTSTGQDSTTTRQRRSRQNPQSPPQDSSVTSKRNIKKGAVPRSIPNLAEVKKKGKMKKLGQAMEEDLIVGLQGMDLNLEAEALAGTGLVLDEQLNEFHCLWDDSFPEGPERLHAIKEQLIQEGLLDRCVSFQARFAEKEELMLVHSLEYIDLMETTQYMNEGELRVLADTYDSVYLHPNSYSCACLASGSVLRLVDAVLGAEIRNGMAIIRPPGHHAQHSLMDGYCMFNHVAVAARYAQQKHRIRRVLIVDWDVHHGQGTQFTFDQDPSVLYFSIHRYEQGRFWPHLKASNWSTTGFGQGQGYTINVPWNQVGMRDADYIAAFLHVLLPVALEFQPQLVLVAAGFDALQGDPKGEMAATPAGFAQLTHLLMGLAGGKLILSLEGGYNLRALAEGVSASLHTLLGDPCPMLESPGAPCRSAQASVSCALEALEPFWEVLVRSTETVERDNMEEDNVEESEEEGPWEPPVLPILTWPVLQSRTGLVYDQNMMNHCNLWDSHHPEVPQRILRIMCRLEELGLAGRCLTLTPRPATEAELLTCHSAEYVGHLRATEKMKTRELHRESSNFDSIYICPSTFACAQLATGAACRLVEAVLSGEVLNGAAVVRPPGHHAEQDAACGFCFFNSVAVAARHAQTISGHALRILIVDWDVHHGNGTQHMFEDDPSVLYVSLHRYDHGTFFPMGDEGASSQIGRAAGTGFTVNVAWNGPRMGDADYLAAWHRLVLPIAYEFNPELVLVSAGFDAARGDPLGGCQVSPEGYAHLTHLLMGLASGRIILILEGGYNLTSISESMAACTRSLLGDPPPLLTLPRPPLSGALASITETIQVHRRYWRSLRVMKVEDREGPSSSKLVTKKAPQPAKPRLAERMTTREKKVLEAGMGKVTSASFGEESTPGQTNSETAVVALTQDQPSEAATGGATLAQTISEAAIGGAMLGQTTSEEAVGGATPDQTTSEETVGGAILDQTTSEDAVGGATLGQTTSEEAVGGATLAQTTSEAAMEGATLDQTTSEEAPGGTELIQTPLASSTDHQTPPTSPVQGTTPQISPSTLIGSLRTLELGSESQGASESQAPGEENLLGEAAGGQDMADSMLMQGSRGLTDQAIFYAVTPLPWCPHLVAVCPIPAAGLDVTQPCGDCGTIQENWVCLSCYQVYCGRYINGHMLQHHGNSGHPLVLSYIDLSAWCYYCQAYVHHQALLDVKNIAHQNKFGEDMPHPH
The experiment in a line: HDAC6 enzyme activity inhibition (HDAC Fluorimetric Drug Discovery Kit). It counts as biochemical. Details: purchased Calbiochem Inc. 382180. The conditions noted are these: HDAC6 over HDAC1. As to the method:
A comparative experiment was conducted with an existing developed material as a control group in order to identify the selectivity of the compound represented by Formula I of the present invention to HDAC6 through an experiment on HDAC1 and HDAC6 enzyme activity inhibition.
The HDAC enzyme activity was measured with HDAC Fluorimetric Drug Discovery Kit (BML-[1424] AK511, 516) of Enzo Life Science, Inc. For the test on the HDAC1 enzyme activity, human recombinant HDAC1 (BML-SE456) was used as an enzyme source and Fluor de Lys®-“SIRT1 (BNL-KI177)” was used as a substrate. A 5-fold dilution of the compound was divided into a 96-well plate, after which 0.3 μg of the enzyme and 10 μM of the substrate were inserted into each well and subjected to reaction at 30° C. for 60 minutes, such that Fluor de Lys® Developer II (BMLKI176) was inserted thereinto and subjected to reaction for 30 minutes and finished. After that, a fluorescence value (Ex 360, Em 460) was measured with a multi-plate reader (Flexstation 3, Molecular Device). An experiment on HDAC6 enzyme was conducted in accordance with the same protocol as an HDAC1 enzyme activity test method by using human recombinant HDAC6 (382180) of Calbiochem Inc. Each IC50 value was calculated with GraphPad Prism 4.0 program, and final result values were described in the following table 2.

Assay [9] has as its target T2, HDAC-6. The experiment in a line: HDAC isotype enzyme assay (Reaction biology Corp.). Type of assay: biochemical. Details: Reaction biology Corp. (contract laboratory). As to conditions: substrate RHK-K(Ac)-AMC.
Source text: The experiment was requested at Reaction biology Corp. (Malvern, Pa., USA) and performed according to a test method established within the organization.

On to `C[C@@H]1CN(Cc2ccc(C(=O)NO)cc2)C[C@H](C)N1Cc1ccccc1` [Compound 84, 4-(((3R,5S)-4-benzyl-3,5-dimethylpiperazin-1-yl)methyl)-N-hydroxybenzamide], for which the “Velocity distribution (%)” value is “* (0%~50%)” in [1] (0.5 uM) and “*** (>100%)” in assay [1] (15 uM). Besides, the results for the 50% inhibitory concentration (IC50) in assay [2] and in assay [9] were 5170 nM and 72.2 nM, respectively. Further, the “Inhibition of other HDAC isotypes” value in assay [3] was “not inhibited at all”. Besides, in assay [4], the “Time of latency to fall” value was “increased in a dose-dependent manner”. Besides, in assay [5], the Grip strength entry is on record as “increased in a dose-dependent manner”. Moreover, in assay [6], the “Compound muscle action potentials (CMAP)” value is listed as “increased in a dose-dependent way”. In assay [6], the “Motor nerve conduction velocity (MNCV)” value is on record as “increased in a dose-dependent way”. For the same compound, in assay [7] (sciatic nerve, vs control group (C22-Veh)), the “Size of diameters of myelinated nerves” value was “increase”. The “Ratio of myelinated nerves and unmyelinated nerves” value in assay [7] (sciatic nerve, vs control group of mice) is “significant increase”. Moreover, in assay [7] (toluidine blue, 10, 25 or 100 mg/kg for two weeks, vs control group of mice), the “Morphological changes (loss of myelinated nerve fibers, axonal atrophy and schwann cell hyperplasia)” value was “significant improvement”. The “HDAC6 selectivity (fold)” value in assay [8] is reported as 517 fold.
Take `C[C@@H]1CN(Cc2ccc(C(=O)NO)cc2)C[C@H](C)N1Cc1cccc(CN2CCCCC2)c1` [Compound 382, 4-(((3R,5S)-3,5-dimethyl-4-(3-(piperidin-1-ylmethyl)benzyl)piperazin-1-yl)methyl)-N-hydroxybenzamide]: the “HDAC6 selectivity (fold)” value in assay [8] is recorded as above 120 fold.
As for `CC(C)CCN1CCN(Cc2cccc(CN3[C@H](C)CN(Cc4ccc(C(=O)NO)cc4)C[C@@H]3C)c2)CC1` [Compound 454, N-hydroxy-4-(((3R,5S)-4-(3-((4-isopentylpiperazin-1-yl)methyl)benzyl)-3,5-dimethylpiperazin-1-yl)methyl)benzamide], the figures for the “Velocity distribution (%)” value in assay [1] (1 uM), in assay [1] (3 uM) and in [1] (15 uM) were “* (0%~50%)”, “* (0%~50%)” and “** (50%~100%)”, respectively. Further, the “HDAC6 selectivity (fold)” value in assay [8] is on record as above 237 fold.
